Experimental data from US5767120A, “Tricyclic derivatives, compositions and methods of use” (Schering Corporation, priority 1995, dated 1998).

Columns and labels:
[1] = system: TNF-α; assay: Inhibition of LPS-Induced TNF-α Production From the Murine Cell Line WEHI-265; format: cell-based; conditions: Mus musculus, WEHI-265 cells, 20-24 hours
Description: This test procedure is a standard test used to determine anti-TNF-α activity and to evaluate the usefulness of said compounds for counteracting the biological effects of TNF-α.
1. In Vitro Study: Inhibition of LPS-Induced TNF-α Production From the Murine Cell Line WEHI-265
1) Cells (obtained from cell cultures containing ≤10^6 cells/ml) are suspended at 0.2×10^6 cells/ml in complete medium (RPMI1640, with 10% FCS, 10^-5 M 2-ME, 2 mM glutamine and 10 mM HEPES buffer) and plated in CoStar 24 well plates (1.0 ml/well).
2) Compounds are dissolved in the appropriate vehicle at 400 times the concentration to be tested, and 5 μl of compound is added to the wells.
3) LPS (from E. coli 0111:B4) is diluted to 6 μg/ml and 1.0 ml is added to wells.
4) Plates are incubated 20-24 hours in 37° CO02 incubator.
5) Supernatant fluids are collected and analyzed for TNF content as described in J. ImmunoL, 142:3884.

[2] = Inhibition of LPS/Galactosaimine-Induced Lethality (septic shock); format: in vivo, Mice (C57BI/6J males); conditions: 25 mg/kg orally or i.p. one hour before LPS (100 ng) and d-galactosamine (8 mg) i.p.; survival 24 hours after challenge
Description: This test procedure is a standard test used to determine activity against septic shock.
3. In Vivo Study: Inhibition of LPS/Galactosaimine-Induced Lethality
1) Mice (C57BI/6J males, 6-8 weeks of age) are dosed with the indicated compound (dissolved in CMC suspension vehicle; compounds are given orally or i.p. one hour before challenge with LPS and d-galactosamine).
2) Mice are challenged i.p. with a mixture of LPS (from E. coli 0111:B4; 100 ng) and d-galactosamine (8 mg).
3) Survival is determined 24 hours after challenge. See procedure published in J. Exp. Med. 165:657 (1987)

[3] = system: serum TNF; assay: Inhibition of LPS-Induced Serum TNF; format: in vivo, Mice (C57BI/6J males); conditions: Mus musculus, 1.5 h; 25 mg/kg orally or i.p. one hour before LPS (50 μg i.p.); serum 90 min after LPS; values may be subject to a wide margin of error
Description: In addition to the in vitro test described above, the following in vivo test was also performed on several of the compounds of the present invention.
2. In Vivo Study: Inhibition of LPS-Induced Serum TNF
1) Mice (C57BI/6J males, 6-8 weeks of age) are dosed with the indicated compound (dissolved in CMC suspension vehicle; compounds are given orally or i.p. one hour before LPS challenge).
3) Mice are bled 90 min after LPS challenge.
4) Sera are analyzed for TNF content by ELISA as described in J. Immunol.

SMILES	inhibition at 10 µM [1] [%]	# dead/total at 25 mg/kg [2]	inhibition in vivo at 25 mg/kg [3] [%]
CCOC1(CCN(C)S(C)(=O)=O)c2ccccc2CCc2ccccc21 [Compound IN, N-[2-(5-ethoxy-10,11-dihydro-5H-dibenzo[a,d]cycloheptenyl)ethyl]-N-methyl-methanesulfonamide]	19	6/9	–
C=CCC1(CCN(C)C(C)=O)c2ccccc2CCc2ccccc21 [IR]	61	–	36
CCOCC1(CNC(C)=O)c2ccccc2CCc2ccccc21 [IY]	17	–	–
CCOC1(CCN(C)CCOCCO)c2ccccc2CCc2ccccc21 [IJJ]	53	–	–
CN(C)CCC1(CC2CC2)c2ccccc2CCc2ccccc21 [IF]	68	–	34
CCOC1(CCNC)c2ccccc2CCc2ccccc21 [IK]	60	0/9	40
CCCC1(CCN(C)C)c2ccccc2CCc2ccccc21 [Compound IC, 10,11-dihydro-N,N-dimethyl-5-propyl-5H-dibenzo[a,d]cycloheptene-5-(2-ethanamine)]	60	1/9	65
C=CCC1(CCN(C)C(=O)OCC)c2ccccc2CCc2ccccc21 [Compound ICC]	42	–	–
C=CCC1(CCNC)c2ccccc2CCc2ccccc21 [IAA]	56	5/10	38
CCCC1(CCNC)c2ccccc2CCc2ccccc21 [IDD]	59	9/10	31
CCOC(=O)CN(C)CCC1(OCC)c2ccccc2CCc2ccccc21 [IHH]	40	–	–
CCOC1(CCN(C)C)c2ccccc2CCc2ccccc21 [Compound IA, 5-ethoxy-5-dimethylaminoethyl-10,11-dihydro-5H-dibenzo[a,d]cycloheptene]	51	0/8	69
C=CCC1(CCN2CCCC2)c2ccccc2CCc2ccccc21 [IO]	66	5/9	47
CCCC1(CCCN(C)C)c2ccccc2CCc2ccccc21 [Compound IG, 10,11-dihydro-N,N-dimethyl5-propyl-5H-dibenzo[a,d]cycloheptenep]	60	–	–
C=CCC1(CCN2CCCC2C(=O)O)c2ccccc2CCc2ccccc21 (centres unmarked) [Compound IVV, 1-[2-[10,11-dihydro-5-(2propenyl)-5H-dibenzo[a,d]cyclohepten-5-yl]ethyl]-2-pyrrolidinecarboxylic acid]	14	–	–
CN(C)CCC1(C)c2ccccc2CCc2ccccc21 [IOO]	16	–	–
CCOCC1(CCNC)c2ccccc2CCc2ccccc21 [IBB]	45	10/10	34
CCOC1(CCN(C)CC(=O)O)c2ccccc2CCc2ccccc21 [IKK]	13	–	–
CCOCC1(CN)c2ccccc2CCc2ccccc21 [IX]	29	9/10	3
CCOC1(CCN(C)C(=O)c2ccc(C(=O)OC)cc2)c2ccccc2CCc2ccccc21 [IFF]	44	9/9	0
CCOCC1(CCN(C)C)c2ccccc2CCc2ccccc21 [IEE]	23	8/10	38
ON=CCC1(CC2CC2)c2ccccc2CCc2ccccc21 [IRR]	48	–	38
CCOC1(CCN(C)C)c2ccccc2COc2ccccc21 (centres unmarked) [IB]	33	0/9	70

SMILES	inhibition at 10 µM [1] [%]	# dead/total at 25 mg/kg [2]	inhibition in vivo at 25 mg/kg [3] [%]
CCOC1(CCN(C)S(=O)(=O)c2ccccc2)c2ccccc2CCc2ccccc21 [IW]	47	8/10	–
CCCC1(CCN(C)C)c2ccccc2COc2ccccc21 (centres unmarked) [ID]	62	–	67
C=CCC1(CCN2CCN(C)CC2)c2ccccc2CCc2ccccc21 [IQ]	68	–	–
C=CCC1(CCN(C)C)c2ccccc2CCc2ccc(Cl)cc21 (centres unmarked) [IPP]	52	–	–
C=CCCC1(CCN(C)C)c2ccccc2CCc2ccccc21 [INN]	75	–	–
CCOC1(CCN(C)C(=O)c2cc[n+]([O-])cc2)c2ccccc2CCc2ccccc21 [IT]	14	9/9	–
C=CCC1(CCN(C)C)c2ccccc2COc2ccccc21 (centres unmarked) [IMM]	70	0/10	32
C=CCC1(CCNC)c2ccccc2COc2ccccc21 (centres unmarked) [ILL]	50	3/10	44
CCOCC1(CN(C)C)c2ccccc2CCc2ccccc21 [IZ]	37	8/10	0
CCOC1(CCN(C)C)c2ccccc2CCc2ccc(Cl)cc21 (centres unmarked) [Compound IS]	–	3/10	–
CCCC1(CN(C)C)c2ccccc2CCc2ccccc21 [Compound ISS, 10,11-dihydro-N,N-dimethyl-5-propyl-5H-dibenzo[a,d]cyclohepten-5-methanamine]	67	–	–
C=CCC1(CC=NO)c2ccccc2CCc2ccccc21 [Compound IUU, 2-[10,11-dihydro. 5-(2-propenyl)-5H-dibenzo[a,d]cyclohepten-5-yl]-ethanone oxime]	29	–	–
CCOC1(CCN(C)C(C)=O)c2ccccc2CCc2ccccc21 [IJ]	48	8/8	–
CCOC(=O)N(C)CCC1(OCC)c2ccccc2CCc2ccccc21 [Compound IV]	34	–	–
CCOC1(CCN2Cc3ccccc3C2)c2ccccc2CCc2ccccc21 [Compound IL, 2-[2-[5-ethoxy-10,11-dihyd]	53	–	–
CCOC1(CCN(C)C(=O)c2ccc(C(=O)O)cc2)c2ccccc2CCc2ccccc21 [Compound IGG, 4-[[N-[2-[5-ethoxy-10,11-dihydro-5H-dibenzo[a,d]cyclohepten-5-yl]ethyl]-N-methyl]oxo]benzoic acid]	4	10/10	0
CCCC1(CCN2CCCC2)c2ccccc2CCc2ccccc21 [IP]	44	9/9	52
CCOC1(CCN2CCCC2)c2ccccc2COc2ccccc21 (centres unmarked) [Compound IM, 1-[2-(11-ethoxy-6,11-dihydrodibenz[b,e]oxepin-11-yl)ethyl]pyrrolidine]	54	1/8	58
CCCC1(CCN(C)C)c2ccccc2CCc2ccc(Cl)cc21 (centres unmarked) [IQQ]	42	–	–
CCCC1(CN)c2ccccc2CCc2ccccc21 [Compound IH, 10,11-dihydro-5-propyl-5H-dibenzo[a,d]cycloheptene-5-methanamine]	77	–	–
CCCC1(CCC=NO)c2ccccc2CCc2ccccc21 [ITT]	4	–	–
CCOC1(CCNC)c2ccccc2COc2ccccc21 (centres unmarked) [Compound IU]	25	8/9	21
